Columns and labels:
[1] = target: T1, C-C chemokine receptor type 4 (Homo sapiens, UniProt P51679); assay: Displacement of [125I]TARC from human CCR4 receptor transfected in HEK293 cells; format: cell-based
T1 sequence (P51679 whole entry): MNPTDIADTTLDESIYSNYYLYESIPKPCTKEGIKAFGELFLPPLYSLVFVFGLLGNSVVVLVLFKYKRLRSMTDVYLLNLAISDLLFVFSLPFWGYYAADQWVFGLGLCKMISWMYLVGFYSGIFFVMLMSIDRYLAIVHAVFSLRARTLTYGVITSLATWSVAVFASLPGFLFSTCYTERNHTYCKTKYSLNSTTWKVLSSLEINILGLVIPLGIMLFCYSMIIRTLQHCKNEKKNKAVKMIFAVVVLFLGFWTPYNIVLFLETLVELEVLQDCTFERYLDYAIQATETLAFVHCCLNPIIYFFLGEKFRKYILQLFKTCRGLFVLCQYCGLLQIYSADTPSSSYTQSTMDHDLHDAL

L1.2 = assay: Cytotoxicity against CCR4 transfected L1.2 cells (murine pre-B cells); format: functional, cell-based; conditions: Mus musculus
[2] = target: T1, C-C chemokine receptor type 4; assay: Calcium mobilization mediated by CCR4 receptor in CEMS529 cells by FLIPR; format: functional, cell-based
Mus musculus = assay: In vivo efficacy against allergic lung inflammation in BABL/c mice administered sc; format: functional

IC50 [1] [µM]	SMILES	further results
> 10	CN1CCCC(C(=O)NCCCNc2nccc(OCc3ccc(Cl)cc3Cl)n2)C1 (stereo not drawn)	
> 10	O=C(c1cccnc1)N1CCN(c2nccc(OCc3ccc(Cl)cc3Cl)n2)CC1	
> 10	CN1CCCC(C(=O)NCCNc2nccc(OCc3ccc(Cl)cc3Cl)n2)C1 (stereo not drawn)	
1.2	CN1CCCC(C(=O)N2CCN(c3nccc(OCc4ccc(Cl)cc4Cl)n3)CC2)C1 (stereo not drawn)	
> 10	O=C(Cc1cccnc1)N1CCN(c2nccc(OCc3ccc(Cl)cc3Cl)n2)CC1	

Second part, the compound before the results:

SMILES	IC50 [1] [µM]	further results
O=C([C@H]1CCCCN1)N1CCN(c2nccc(NCc3ccc(Cl)cc3Cl)n2)CC1	0.05	IC50 (L1.2): > 100 µM; IC50 [2]: 0.01 µM; ED50 (Mus musculus): 30 mg/kg
O=C([C@H]1CCCN1)N1CCN(c2nccc(NCc3ccc(Cl)cc3Cl)n2)CC1	0.06	
CN1CCCC(C(=O)N2CCN(c3ccnc(NCc4ccc(Cl)cc4Cl)n3)CC2)C1 (stereo not drawn)	0.3	
O=C([C@@H]1CCCCN1)N1CCN(c2nccc(NCc3ccc(Cl)cc3Cl)n2)CC1	1	
O=C(C1CNC1)N1CCN(c2nccc(NCc3ccc(Cl)cc3Cl)n2)CC1	> 10	
O=C(C1CCCNC1)N1CCN(c2nccc(NCc3ccc(Cl)cc3Cl)n2)CC1 (stereo not drawn)	0.8	
Cn1cnc(CC(=O)N2CCN(c3nccc(OCc4ccc(Cl)cc4Cl)n3)CC2)c1	> 10	
CC(C)[C@@H](CNc1nccc(OCc2ccc(Cl)cc2Cl)n1)NC(=O)C1CCCN(C)C1 (stereo partly drawn)	5.6	
O=C(C1CCNCC1)N1CCN(c2nccc(NCc3ccc(Cl)cc3Cl)n2)CC1	> 10	
CN1CCCC(C(=O)N2CCN(c3nccc(NCc4ccc(Cl)cc4Cl)n3)CC2)C1 (stereo not drawn)	0.7	

Reference: ChEMBL document CHEMBL1148558, “Optimization of CCR4 antagonists: side-chain exploration” (Bioorg Med Chem Lett, 2006)
